Assay results taken from patent US9403829B2, “Pharmaceutical compositions of 7-(6-(2-hydroxypropan-2-yl)pyridin-3-yl)-1-((trans)-4-methoxycyclohexyl)-3,4-dihydropyrazino [2,3-b]pyrazin-2(1H)-one, a solid form thereof and methods of their use” (Signal Pharmaceuticals, LLC, priority 2011, dated 2016).
Values belong to the compound of their own block, whether it stands above or below them.

Experiments:
[1] = Phase 1 food effect study (Part 2), single 20-mg oral dose of Compound A tablet, fed vs fasted; format: in vivo, human; details: for CL/F / Tmax / AUC(0-inf) / Cmax / half-life / AUC(0-t) / Vd/F: single 20-mg oral dose of Compound A tablet; for CL/F / AUC(0-inf) / Cmax / half-life / AUC(0-t) / Vd/F: geometric mean; for Tmax / AUC(0-inf) / Cmax / half-life / AUC(0-t) / Vd/F: male, human, plasma, po, 20 mg; for Tmax: median, read-out: Tmax; for AUC(0-t): read-out: AUC0-24; for Vd/F: read-out: Vz/F
Experimental: The primary objectives of this study are: to characterize the biotransformation and excretion of Compound A following a single 20 mg oral dose of Compound A capsule containing a microtracer of [^14C]-Compound A solution in healthy male subjects (Part 1) and to evaluate the effect of a high-fat meal on the pharmacokinetics (PK) of Compound A following a single oral 20-mg dose of Compound A tablet (Part 2).
Part 2 design: Part 2 will be a 2-period crossover study; in Period 1, subjects (n=12) will be randomized to receive either an oral 20 mg dose of Compound A tablet (Treatment B) under fed (n=6) or fasted (n=6) conditions. In Period 2, subjects will receive Treatment B under converse conditions based on treatment assignment in Period 1. After screening, subjects (n=12) eligible for participation in the study will return to the study center on Day −1 for baseline assessments. Subjects who continue to be qualified for participation in the study will be randomized and enrolled in the study on the morning of Day 1. Subjects (n=6) will be enrolled and randomized to receive Treatment B under fed or fasted conditions on the morning of Day 1 after fasting for at least 8 hours. Fed subjects will be served a standard high fat meal breakfast, or its equivalent, that must be consumed within 30 minutes from serving. Dosing must occur 30 minutes (+5 minutes) after serving a subject breakfast. All subjects (fed and fasted) will fast (not to consume any food) until 4 hours post dose. Water will be allowed during the fasting period. Subjects will be domiciled at the study center from Day −1 until the morning of Day 5 of each period. Subjects will be discharged from the study center on the morning of Day 5 upon satisfactory safety review and completion of study-related procedures. Safety and tolerability data will be monitored and collected following each dosing period. Periods 1 and 2 will be separated by a washout period of at least 7 days (no more than 10 days) from prior dose to the next dose. In certain instances, a longer washout may be acceptable if previously agreed to.
Serial blood samples (10 mL) will be collected at predose (0 hour) and at 0.5, 1, 2, 3, 6, 12, 24, 48, 72 and 96 hours post dose for the determination of plasma concentrations of Compound A and the O-desmethyl metabolite of Compound A. Safety will be monitored throughout the study; safety evaluations will include AE reporting, physical examinations, vital sign measurements, ECG, and clinical laboratory safety tests. Concomitant medications will be assessed and recorded throughout the study as well. In addition, during the subjects' stay-in-the clinic (i.e., confinement period), fasting plasma glucose levels will be monitored as part of the clinical laboratory safety tests. For Parts 1 and 2, all subjects will return to the clinic within 7 to days after the last dose for follow up safety assessments. In the event that a subject discontinues prematurely from the study, every reasonable effort should be made (and documented) to ensure that all procedures and evaluations scheduled for the follow-up visit are performed at the time of discontinuation or a follow-up visit should be scheduled within 7 to days from the discontinuation day.
Part 2 dosing: In Part 2, subjects will fast overnight for at least 8 hours prior to Compound A administration. On the morning of Day 1, each subject will receive a 20-mg tablet of Compound A orally. Subjects randomized to receive Compound A under fed conditions will be a served a standard high fat meal (breakfast).
The standard high fat meal or its equivalent must be consumed within minutes of serving. Dosing must occur 30 minutes (+5 minutes) after serving the meal. The tablet will be administered with approximately 240 mL of non-carbonated, room temperature water. After dosing, subjects will continue to fast until 4 hours after dosing.

[2] = Phase 1 crossover pharmacokinetic study of tablet and capsule formulations, single oral dose; format: in vivo, human
Experimental: Certain formulations provided herein were evaluated in a Phase 1, open-label, randomized, crossover study.
On Day 1 of Period 1, following an overnight fast of at least 8 hours, subjects were randomized to one of the following 3 sequences to receive Treatment A, B or C (Table 30).
In Treatment A, one 20-mg reference Compound A API-in-capsule was administered orally after at least 8 hour fast with 240 mL of non-carbonated, room temperature water. In Treatment B, one 20-mg tablet of Compound A (Tablet Formulation XIII) was administered under fasted conditions. In Treatment C, four 5-mg tablets of Compound A (Tablet Formulation XIV) were administered under fasted conditions. The 20-mg tablet and four 5-mg tablets were administered orally after at least 8 hour fast with 240 mL of non-carbonated, room temperature water.
For each period, serial blood samples were collected before dosing (zero hour) and at 0.5, 1, 1.5, 2, 2.5, 3, 4, 6, 8, 12, 24, 48, 72, and 96 hours after dosing. Plasma concentrations of Compound A were determined for determining PK parameters, such as […], AUC0-∞, Cmax, Tmax, t1/2, CL/F, and Vz/F for Compound A. Plasma PK parameters were calculated using non compartmental methods. Analyses of variance (ANOVA) were performed on the natural log-transformed AUC0-t, AUC0-∞, and Cmax for Compound A. The geometric mean ratios (test/reference) and their 90% confidence intervals were also calculated. For Tmax, non parametric analysis was used to produce median differences.

[3] = Gravimetric vapour sorption (DVS) hygroscopicity; format: physicochemical; details: for water uptake (mass gain): between 0 and 80% relative humidity, DVS, 25° C.
Experimental: Sorption isotherms were obtained using a SMS DVS Intrinsic moisture sorption analyser, controlled by DVS Intrinsic Control software v1.0.0.30. The sample temperature was maintained at 25° C. by the instrument controls. The humidity was controlled by mixing streams of dry and wet nitrogen, with a total flow rate of 200 mL/min. The relative humidity was measured by a calibrated Rotronic probe (dynamic range of 1.0-100% RH), located near the sample. The weight change, (mass relaxation) of the sample as a function of % RH was constantly monitored by the microbalance (accuracy±0.005 mg). Typically 5-20 mg of sample was placed in a tared mesh stainless steel basket under ambient conditions. The sample was loaded and unloaded at 40% RH and 25° C. (typical room conditions). The standard isotherm was performed at 25° C. at 10% RH intervals over a 0-90% RH range. Data analysis was undertaken in Microsoft Excel using DVS Analysis Suite v6.0.0.7.
Hygroscopicity of Form A was determined by moisture adsorption and desorption.

[4] = fed vs fasted, healthy adult males, 20 mg Compound A

CL/F ([1]; Fasted (n = 11)): 19.9 L/h
CL/F ([1]; Fed (n = 11, high fat meal)): 16.7 L/h
decrease in Cmax with a high fat meal [1, 4]: ~17%
increase in overall exposure (AUCinf) with a high fat meal [1, 4]: ~20%
Tmax ([1]; Fasted (n = 11), healthy adult males): 1 h
AUC(0-inf) ([1]; Fasted (n = 11)): 1.01 µg·h/mL
Cmax ([1]; Fasted (n = 11)): 0.182 µg/mL
half-life ([1]; Fasted (n = 11)): 5.3 h
AUC(0-t) ([1]; Fasted (n = 11)): 0.955 µg·h/mL
Vd/F ([1]; Fasted (n = 11)): 151 L
AUC(0-inf) ([1]; Fed (n = 11, high fat meal)): 1.2 µg·h/mL
Cmax ([1]; Fed (n = 11, high fat meal)): 0.156 µg/mL
half-life ([1]; Fed (n = 11, high fat meal)): 5.2 h
AUC(0-t) ([1]; Fed (n = 11, high fat meal)): 1.13 µg·h/mL
Vd/F ([1]; Fed (n = 11, high fat meal)): 125 L
Tmax ([1]; Fed (n = 11, high fat meal)): 3 h
CL/F ([2]; Treatment A: one 20-mg Compound A API-in-capsule, oral, fasted, n = 18, geometric mean): 20.3 L/h
half-life ([2]; male, human, plasma, Treatment A: one 20-mg Compound A API-in-capsule, oral, fasted, n = 18, geometric mean): 5.7 h
Vd/F ([2]; male, human, plasma, Treatment A: one 20-mg Compound A API-in-capsule, oral, fasted, n = 18, geometric mean, read-out: Vz/F): 167 L
Tmax ([2]; male, human, Treatment A: one 20-mg Compound A API-in-capsule, oral, fasted, healthy adult males, n = 18, plasma, median): 1.5 h
Cmax ([2]; male, human, Treatment A: one 20-mg Compound A API-in-capsule, oral, fasted, n = 18, plasma, geometric mean): 0.19 µg/mL
AUC(0-t) ([2]; male, human, Treatment A: one 20-mg Compound A API-in-capsule, oral, fasted, n = 18, plasma, geometric mean, read-out: AUC0-24): 0.934 µg·h/mL
AUC(0-inf) ([2]; male, human, Treatment A: one 20-mg Compound A API-in-capsule, oral, fasted, n = 18, plasma, geometric mean, read-out: AUC0-∞): 0.985 µg·h/mL
pharmacokinetics, tablet formulations vs API in capsule ([2]; single dose 20 mg, healthy adult male subjects): comparable
Structure (SMILES): CO[C@H]1CC[C@H](N2C(=O)CNc3ncc(-c4ccc(C(C)(C)O)nc4)nc32)CC1 [Compound A, 7-(6-(2-hydroxypropan-2-yl)pyridin-3-yl)-1-((trans)-4-methoxycyclohexyl)-3,4-dihydropyrazino[2,3-b]pyrazin-2(1H)-one]

hygroscopicity ([3]; DVS moisture adsorption and desorption): not hygroscopic
XRPD diffractogram after full adsorption/desorption cycle ([3]; after DVS cycle): unchanged from the initial Form A
water uptake (mass gain) [3]: < 0.1 % w/w
water uptake (mass gain) ([3]; listed as Form A of Compound A): less than 0.1 % w/w
weight gain ([3]; increase in humidity from about 0% to about 50% relative humidity at about 25° C.): about 0.1 % w/w
weight gain ([3]; increase in humidity from about 0% to about 95% relative humidity at about 25° C.): about 0.3 % w/w
mass gain ([3]; increase in humidity from about 80% to about 90% relative humidity): about 0.5 % w/w
Structure (SMILES): CO[C@H]1CC[C@H](N2C(=O)CNc3ncc(-c4ccc(C(C)(C)O)nc4)nc32)CC1 [Form A, 7-(6-(2-hydroxypropan-2-yl)pyridin-3-yl)-1-((trans)-4-methoxycyclohexyl)-3,4-dihydropyrazino[2,3-b]pyrazin-2(1H)-one]
